The data set can be described thus: Plasma CBD profile and PK after IV administration. The format is in vivo. The settings on record: mice; for Plasma CBD, Mean ± SD: 12 mg/kg. As to the method: CBD was extracted from plasma samples that were spiked with cannabigerol (CBG, 1 mg/ml in methanol, Sigma, Cat. C-141-1) used as internal standard (IS) followed by dilution of the plasma five-fold in acetonitrile. After vigorous vortex it was centrifuged, and the upper phase was analyzed. Final IS concentration in the samples was 100 ng/ml.
Plasma extracts were analyzed by LCMS method. Specifically, LC-MS/MS analyses were conducted on a Sciex (Framingham, Mass., USA) Triple Quad™ 5500 mass spectrometer coupled with a Shimadzu (Kyoto, Japan) UHPLC System. The concentrations were calculated based on a calibration curve of CBD in plasma at a range of 1-1,000 ng/ml having 100 ng/ml of IS.
IV formulation: The formulation used for IV administration was 10 mg/g CBD formulation solubilized in Cremophor:Ethanol 50:50 solution. This formulation was diluted 10-fold with saline prior to injection to result in 1 mg/ml post dilution concentration. The diluted formulation was used within 1 h after preparation. […]
At the time-points detailed below, 3 mice were euthanized with CO2 and terminal blood was immediately collected from the retro-orbital sinus in labeled 0.5 ml K3EDTA blood collection tubes (Mini Collect, Greiner-bio-one, Austria). The blood was centrifuged at 2000×g for 10 minutes before plasma was extracted, collected in labeled tubes and frozen at −20° C. immediately after collection. The samples were then stored at −80° C. pending analysis. […]

[1] abbreviates: female, BALB/C, mouse, in vivo, IV 12 mg/kg.

In the case of `C=C(C)[C@@H]1CCC(C)=C[C@H]1c1c(O)cc(CCCCC)cc1O` [CBD, 2-[(1R,6R)-6-Isopropenyl-3-methylcyclohex-2-en-1-yl]-5-pentylbenzene-1,3-diol], under setting [1], the AUC(0-inf) was 5020 ng·h/mL, the C0 worked out at 9460 ng/mL, the highest level (Cmax) was 8860 ng/mL and the Tmax is 4.98 min. Under setting [1], the clearance is 39.8 mL/min/kg and the half-life was 101 min. In addition, the concentration at 5 min (female, BALB/C, mouse, in vivo, IV 12 mg/kg in Cremophor:Ethanol diluted with saline, 5 min, read-out: Plasma CBD, Mean ± SD) was found to be 8860 ng/mL. Further, the concentration at 1 h (female, BALB/C, mouse, in vivo, IV 12 mg/kg, 1 h, read-out: Plasma CBD, Mean ± SD) amounted to 177 ± 40 ng/mL. Where the note is “female, BALB/C, mouse, in vivo, IV 12 mg/kg, 4 h, read-out: Plasma CBD, Mean ± SD”, the concentration at 4 h was found to be 35 ± 11 ng/mL. For the same compound, under “female, BALB/C, mouse, in vivo, IV 12 mg/kg, 8 h, read-out: Plasma CBD, Mean ± SD”, the concentration at 8 h worked out at 9.5 ng/mL. In addition, the AUC (female, BALB/C, mouse, in vivo, IV 12 mg/kg, read-out: AUC0—Tlast) was 5000 ng·h/mL. For the same compound, the Vd (female, BALB/C, mouse, in vivo, IV 12 mg/kg, read-out: Vz) stood at 5.79 L/kg. In addition, under “IV 12 mg/kg”, the “AUC0—Tlast/Dose” value is reported as 417 (hr*ng/mL)/(mg/kg) and the Cmax/Dose is listed as 738 (ng/mL)/(mg/kg). For the same compound, the “Plasma CBD, Mean ± SD” value (IV 12 mg/kg in Cremophor:Ethanol diluted with saline, 5 min) is 8,856 ± 1,451 ng/ml. Besides, where the note is “IV 12 mg/kg, 5 min”, the “Mean plasma CBD concentration normalized to dose (±SD)” value is 757 ± 124 ng/mL/mg/kg. In addition, where the note is “IV 12 mg/kg, 1 h”, the “Mean plasma CBD concentration normalized to dose (±SD)” value is 15 ± 3.46 ng/mL/mg/kg. Also, the “Mean plasma CBD concentration normalized to dose (±SD)” value (IV 12 mg/kg, 4 h) was 2.99 ± 0.90 ng/mL/mg/kg. In addition, under “IV 12 mg/kg, 8 h”, the “Mean plasma CBD concentration normalized to dose (±SD)” value was found to be 0.81 ± 0.31 ng/mL/mg/kg and the “Plasma CBD, Mean ± SD” value worked out at 9.50 ± 3.67 ng/mL. Moreover, where the note is “IV 12 mg/kg, 24 h”, the “Mean plasma CBD concentration normalized to dose (±SD)” value is reported as “BLOD”; the “Plasma CBD, Mean ± SD” value is “below the limit of detection and BLOD”. Also, where the note is “IV 12 mg/kg, 48 h”, the “Mean plasma CBD concentration normalized to dose (±SD)” value is “BLOD”; the “Plasma CBD, Mean ± SD” value is “below the limit of detection and BLOD”.

The term AUC(0-inf) denotes total exposure, with the tail of the curve extrapolated. Read a low AUC(0-inf) as less exposure. The Cmax is the peak of the concentration-time curve. By Tmax is commonly meant the time at which the peak concentration occurs. One may read the clearance as a measure of how efficiently the substance is removed, as volume per time. Read a high clearance as a high capacity for elimination. One may read the half-life as the time in which the quantity being followed falls by half. Lower therefore signals rapid decline.
